The target of assay [1] is T1, Sphingosine kinase 2 (Homo sapiens) (UniProt Q9NRA0).
T1 sequence (whole entry): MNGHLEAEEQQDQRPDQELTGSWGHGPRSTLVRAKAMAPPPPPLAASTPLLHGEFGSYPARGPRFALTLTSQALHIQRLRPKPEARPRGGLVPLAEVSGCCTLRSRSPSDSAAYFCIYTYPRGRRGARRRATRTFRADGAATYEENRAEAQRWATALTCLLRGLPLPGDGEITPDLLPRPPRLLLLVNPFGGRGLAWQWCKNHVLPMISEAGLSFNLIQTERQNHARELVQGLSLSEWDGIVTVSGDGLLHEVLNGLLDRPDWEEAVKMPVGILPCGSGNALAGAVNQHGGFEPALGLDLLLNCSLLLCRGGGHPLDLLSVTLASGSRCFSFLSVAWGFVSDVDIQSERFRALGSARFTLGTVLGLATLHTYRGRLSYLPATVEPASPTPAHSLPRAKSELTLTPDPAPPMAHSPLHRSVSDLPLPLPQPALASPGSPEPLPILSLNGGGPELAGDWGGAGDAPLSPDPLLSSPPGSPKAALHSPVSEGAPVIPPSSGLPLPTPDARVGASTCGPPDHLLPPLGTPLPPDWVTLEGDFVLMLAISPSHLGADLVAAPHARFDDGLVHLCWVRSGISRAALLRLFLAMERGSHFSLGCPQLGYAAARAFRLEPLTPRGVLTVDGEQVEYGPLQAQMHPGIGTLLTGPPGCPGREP
The assay can be described thus: Inhibition of recombinant human SphK2 assessed as decrease in [33P]SIP production at 0.3 uM using sphingosine as substrate in presence of [gamma33P]-ATP by scintillation counting method relative to control.

The next assay addresses T2, Sphingosine kinase 2 (Homo sapiens, UniProt Q9NRA0).
T2 sequence (Q9NRA0 whole entry): T1 sequence (whole entry)

The results in this text go back to ChEMBL document CHEMBL4680333, “Lipophilic tail modifications of 2-(hydroxymethyl)pyrrolidine scaffold reveal dual sphingosine kinase 1 and 2 inhibitors” (Bioorg Med Chem, 2021).

Molecules are shown by their SMILES.

In general, inhibition refers to the drop in the measured response relative to a control, in per cent. Take `CCCCCCCCCCCc1ccc(CN2CCC[C@@H]2COC(C)=O)cc1`: the inhibition in assay [1] was 2%. In general, Ki refers to a dissociation constant, usually derived from enzyme kinetics or from competition with a known ligand. Read a high Ki as a looser hold on the target. Turning to `CCCCCCCCCCCCc1ccc(CN2CCC[C@@H]2CO)cc1`, the inhibition in assay [1] was 37%. In addition, on Sphingosine kinase 2, the Ki was found to be 951 nM.

On to `CCCCCCCCCOc1ccc(CN2CCC[C@@H]2CO)cc1`, for which the inhibition in assay [1] was 44%. Consider `OC[C@H]1CCCN1Cc1ccc(Oc2ccccc2)cc1`, for which the inhibition in assay [1] is 13%.

On to `CCCCCCCCCCCc1ccc(CN2CCC[C@@H]2CO)cc1`, for which the inhibition in assay [1] came out at 18%. With `CCCCc1ccc(C#Cc2ccc(CN3CCC[C@@H]3CO)cc2)cc1`, the inhibition in assay [1] was found to be 25%.

`CC(C)(C)c1cccc(Oc2ccc(CN3CCC[C@@H]3CO)cc2)c1`: in assay [1], the inhibition is 11%. Same read-out and setting: in the case of `OC[C@H]1CCCN1Cc1ccc(Oc2ccc(-c3ccccc3)cc2)cc1` it was 9%; in that of `CCCc1ccc(CCc2ccc(CN3CCC[C@@H]3CO)cc2)cc1`, 15%.

Regarding `CCCCCCCCOc1ccc(COc2ccc(-c3noc([C@@H]4CCCN4C(=N)N)n3)cc2C(F)(F)F)cc1`, on Sphingosine kinase 2, the affinity corresponds to a Ki of 400 nM. On to `CCCCc1ccc(CCc2ccc(CN3CCC[C@@H]3CO)cc2)cc1`, for which the inhibition in assay [1] turned out to be 0%. In the case of `CCCCCCCCCCCCc1ccc(CN2CCC[C@@H]2CO)c(C)c1`, the inhibition in assay [1] stood at 38%. On the same count and under the same terms, in the case of `CCCCCCCCCCOc1ccc(CN2CCC[C@@H]2CO)cc1` it was 11%; in that of `Cc1cc(/C=C/c2ccc(C(C)(C)C)cc2)ccc1CN1CCC[C@@H]1CO`, 3%; in that of `OC[C@H]1CCCN1Cc1ccc(Oc2cccc(-c3cccc(C(F)(F)F)c3)c2)cc1`, 11%.

On to `CCCCCc1ccc(CCc2ccc(CN3CCC[C@@H]3CO)cc2)cc1`, for which, in assay [1], the inhibition was 13%. Still for that read-out and setting: in the case of `COc1ccc(CCc2ccc(CN3CCC[C@@H]3CO)cc2)cc1` it was 3%; in that of `CCCCCc1ccc(C#Cc2ccc(CN3CCC[C@@H]3CO)cc2)cc1`, 19%; in that of `OC[C@H]1CCCN1Cc1ccc(OCc2ccc(C(F)(F)F)cc2)cc1`, 0%.

`OC[C@H]1CCCN1Cc1ccc(Oc2ccc(-c3ccc(C(F)(F)F)cc3)cc2)cc1`: in assay [1], the inhibition came to 0%. As for `CCCCCCCCCCc1ccc(CN2CCC[C@@H]2CO)cc1`, the inhibition in assay [1] amounted to 54%. Same read-out and setting: in the case of `OC[C@H]1CCCN1Cc1ccc(Oc2cccc(-c3ccc(C(F)(F)F)cc3)c2)cc1` it was 1%; in that of `OC[C@H]1CCCN1Cc1ccc(/C=C/c2cccc(C(F)(F)F)c2)cc1`, 0%; in that of `Cc1ccc(CCc2ccc(CN3CCC[C@@H]3CO)cc2)cc1`, 26%.

As for `CCCCCCCCOc1ccc(CN2CCC[C@@H]2CO)cc1`, in assay [1], the inhibition turned out to be 1%. Still for that read-out and setting: in the case of `CCCCCCCCCc1ccc(CN2CCC[C@@H]2CO)cc1` it was 44%. Same read-out and setting: in the case of `CCCc1ccc(C#Cc2ccc(CN3CCC[C@@H]3CO)cc2)cc1` it was 0%; in that of `CCCCCCCOc1ccc(CN2CCC[C@@H]2CO)cc1`, 0%.

For the compound `OC[C@H]1CCCN1Cc1ccc(Oc2cccc(-c3ccccc3)c2)cc1`, in assay [1], the inhibition was 0%. For the compound `CC(C)(C)c1ccc(Oc2ccc(CN3CCC[C@@H]3CO)cc2)cc1`, the inhibition in assay [1] was determined as 22%.

As for `OC[C@H]1CCCN1Cc1ccc(Oc2ccc(-c3cccc(C(F)(F)F)c3)cc2)cc1`, the inhibition in assay [1] came to 52%.
